Each structure is given as a SMILES string. Like-named read-outs stand apart in the source and are kept apart here.

Results on 9 compounds are retold here after patent US10206394B2, “Herbicidal compounds” (Syngenta Participations AG, priority 2014, dated 2019).

What all share (test): Glasshouse assay for herbicidal activity (pre- and post-emergence), percentage phytotoxicity
Common to all, as to format: in vivo

For one test, the system named is Lolium perenne (LOLPE). Conditions: Lolium perenne. An outline of the steps:
(§1)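 Sow seed in standard soil in pots; apply test herbicide after 1 day (PRE) or about 12 days (POST). Grow on in the glasshouse, watering twice daily, cool-season species at 20/16 °C and warm-season at 24/18 °C. Score visible damage (0–100%) at 20 or 15 DAA respectively.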

For test [1], the system named is Echinochloa crus-galli (ECHCG). Conditions: Echinochloa crus-galli. An outline of the steps: as §1
For the next test, the system named is Avena fatua (AVEFA). Conditions: Avena fatua. An outline of the steps:
as §1

For test [2], the system named is Alopecurus myosuroides (ALOMY). Conditions: Alopecurus myosuroides. An outline of the steps: as §1
The mark [3] stands for this setting: post-emergence, 360 h, 250 g/ha, post-emergence, 15 DAA, visual assessment (100%=total damage, 0%=no damage), read-out: Post-emergence herbicidal activity (percentage phytotoxicity) LOLPE POST.
Setting [4] is: pre-emergence, 480 h, 250 g/ha, pre-emergence, 20 DAA, visual assessment (100%=total damage, 0%=no damage), read-out: Pre-emergence herbicidal activity (percentage phytotoxicity) LOLPE PRE.
The mark [5] stands for this setting: post-emergence, 360 h, 250 g/ha, post-emergence, 15 DAA, visual assessment (100%=total damage, 0%=no damage), read-out: Post-emergence herbicidal activity (percentage phytotoxicity) ECHCG POST.
Where [6] appears, read: pre-emergence, 480 h, 250 g/ha, pre-emergence, 20 DAA, visual assessment (100%=total damage, 0%=no damage), read-out: Pre-emergence herbicidal activity (percentage phytotoxicity) ECHCG PRE.
[7] abbreviates: post-emergence, 360 h, 250 g/ha, post-emergence, 15 DAA, visual assessment (100%=total damage, 0%=no damage), read-out: Post-emergence herbicidal activity (percentage phytotoxicity) AVEFA POST.
[8] abbreviates: pre-emergence, 480 h, 250 g/ha, pre-emergence, 20 DAA, visual assessment (100%=total damage, 0%=no damage), read-out: Pre-emergence herbicidal activity (percentage phytotoxicity) AVEFA PRE.
[9] abbreviates: post-emergence, 360 h, 250 g/ha, post-emergence, 15 DAA, visual assessment (100%=total damage, 0%=no damage), read-out: Post-emergence herbicidal activity (percentage phytotoxicity) ALOMY POST.
[10] abbreviates: pre-emergence, 480 h, 250 g/ha, pre-emergence, 20 DAA, visual assessment (100%=total damage, 0%=no damage), read-out: Pre-emergence herbicidal activity (percentage phytotoxicity) ALOMY PRE.
Where [11] appears, read: post-emergence, 360 h, Rate 250 g/ha, post-emergence, assessed visually 15 DAA, 100%=total damage, 0%=no damage, read-out: Post-emergence herbicidal activity (percentage phytotoxicity) LOLPE POST.
Setting [12] is: post-emergence, 360 h, Rate 250 g/ha, post-emergence, assessed visually 15 DAA, 100%=total damage, 0%=no damage, read-out: Post-emergence herbicidal activity (percentage phytotoxicity) ECHCG POST.
[13] abbreviates: post-emergence, 360 h, Rate 250 g/ha, post-emergence, assessed visually 15 DAA, 100%=total damage, 0%=no damage, read-out: Post-emergence herbicidal activity (percentage phytotoxicity) AVEFA POST.
[14] abbreviates: post-emergence, 360 h, Rate 250 g/ha, post-emergence, assessed visually 15 DAA, 100%=total damage, 0%=no damage, read-out: Post-emergence herbicidal activity (percentage phytotoxicity) ALOMY POST.
The mark [15] stands for this setting: pre-emergence, 480 h, Rate 250 g/ha, pre-emergence, assessed visually 20 DAA, 100%=total damage, 0%=no damage, read-out: Pre-emergence herbicidal activity (percentage phytotoxicity) LOLPE PRE.
The mark [16] stands for this setting: pre-emergence, 480 h, Rate 250 g/ha, pre-emergence, assessed visually 20 DAA, 100%=total damage, 0%=no damage, read-out: Pre-emergence herbicidal activity (percentage phytotoxicity) ECHCG PRE.
The mark [17] stands for this setting: pre-emergence, 480 h, Rate 250 g/ha, pre-emergence, assessed visually 20 DAA, 100%=total damage, 0%=no damage, read-out: Pre-emergence herbicidal activity (percentage phytotoxicity) AVEFA PRE.
[18] abbreviates: pre-emergence, 480 h, Rate 250 g/ha, pre-emergence, assessed visually 20 DAA, 100%=total damage, 0%=no damage, read-out: Pre-emergence herbicidal activity (percentage phytotoxicity) ALOMY PRE.

In the case of `Cc1cc(-c2ncc(C#N)cc2F)cc(C)c1C1C(=O)CC(CC(=O)NC(C)(C)C)C1=O` (centres unmarked) [Compound B85], the pest or weed control at 250 g/ha with Lolium perenne (LOLPE) (setting [3]) came to 80%; in the test with Lolium perenne (LOLPE) (setting [4]), 70%; in test [1] (setting [5]), 100%; in test [1] (setting [6]) it was 20%; in the test on Avena fatua (AVEFA) (setting [7]) it was 50%; in the test with Avena fatua (AVEFA) (setting [8]) it was 10%. Besides, the pest or weed control at 250 g/ha in test [2] (setting [9]) and in test [2] (setting [10]) was 70% each time.
`C#CC(C)(C)NC(=O)CC1CC(=O)C(c2c(C)cc(-c3ncc(Cl)cn3)cc2C)C1=O` (centres unmarked) [Compound B343]: the pest or weed control at 250 g/ha with Lolium perenne (LOLPE) (post-emergence, 360 h, Rate 250 g/ha, post-emergence, visual assessment 15 DAA, 100%=total damage, 0%=no damage, read-out: Post-emergence herbicidal activity (percentage phytotoxicity) LOLPE POST) amounted to 100%; with Lolium perenne (LOLPE) (pre-emergence, 480 h, Rate 250 g/ha, pre-emergence, visual assessment 20 DAA, 100%=total damage, 0%=no damage, read-out: Pre-emergence herbicidal activity (percentage phytotoxicity) LOLPE PRE), 100%; in test [1] (post-emergence, 360 h, Rate 250 g/ha, post-emergence, visual assessment 15 DAA, 100%=total damage, 0%=no damage, read-out: Post-emergence herbicidal activity (percentage phytotoxicity) ECHCG POST), 100%; in test [1] (pre-emergence, 480 h, Rate 250 g/ha, pre-emergence, visual assessment 20 DAA, 100%=total damage, 0%=no damage, read-out: Pre-emergence herbicidal activity (percentage phytotoxicity) ECHCG PRE) it was 100%; with Avena fatua (AVEFA) (post-emergence, 360 h, Rate 250 g/ha, post-emergence, visual assessment 15 DAA, 100%=total damage, 0%=no damage, read-out: Post-emergence herbicidal activity (percentage phytotoxicity) AVEFA POST) it was 100%; in the test with Avena fatua (AVEFA) (pre-emergence, 480 h, Rate 250 g/ha, pre-emergence, visual assessment 20 DAA, 100%=total damage, 0%=no damage, read-out: Pre-emergence herbicidal activity (percentage phytotoxicity) AVEFA PRE), 90%. Also, the pest or weed control at 250 g/ha is 100% in test [2] (post-emergence, 360 h, Rate 250 g/ha, post-emergence, visual assessment 15 DAA, 100%=total damage, 0%=no damage, read-out: Post-emergence herbicidal activity (percentage phytotoxicity) ALOMY POST) and 100% in test [2] (pre-emergence, 480 h, Rate 250 g/ha, pre-emergence, visual assessment 20 DAA, 100%=total damage, 0%=no damage, read-out: Pre-emergence herbicidal activity (percentage phytotoxicity) ALOMY PRE).
In the case of `Cc1cc(C)c(C2C(=O)CC(CC(=O)NC(C)C(F)(F)F)C2=O)c(C)c1` (centres unmarked) [Compound B63], the pest or weed control at 250 g/ha was determined as 70% with Lolium perenne (LOLPE) (setting [3]); 80% in the test on Lolium perenne (LOLPE) (setting [4]); 70% in test [1] (setting [5]); 80% in test [1] (setting [6]); 70% in the test on Avena fatua (AVEFA) (setting [7]); 50% in the test with Avena fatua (AVEFA) (setting [8]). Also, the pest or weed control at 250 g/ha in test [2] (setting [9]) was 70%; in test [2] (setting [10]), 80%.
As to `Cc1cc(C)c(C2C(=O)CC(CC(=O)NCC#N)C2=O)c(C)c1` (centres unmarked) [Compound A83], the pest or weed control at 250 g/ha in the test on Lolium perenne (LOLPE) (setting [11]) is 30%; in test [1] (setting [12]), 70%; with Avena fatua (AVEFA) (setting [13]), 10%; in test [2] (setting [14]) it was 50%.
Regarding `Cc1cc(-c2ncc(Cl)cc2F)cc(C)c1C1C(=O)CC(CC(=O)NCc2ncccc2Cl)C1=O` (centres unmarked) [Compound A114], the pest or weed control at 250 g/ha in the test with Lolium perenne (LOLPE) (setting [11]) was 100%; in the test with Lolium perenne (LOLPE) (setting [15]), 90%; in test [1] (setting [12]) it was 100%; in test [1] (setting [16]), 100%; in the test on Avena fatua (AVEFA) (setting [13]), 100%; with Avena fatua (AVEFA) (setting [17]), 90%. The results for the pest or weed control at 250 g/ha in test [2] (setting [14]) and in test [2] (setting [18]) were 100% and 90%, respectively.
As for `Cc1cc(C)c(C2C(=O)CC(CC(=O)NCC(F)(F)F)C2=O)c(C)c1` (centres unmarked) [Compound B59], the pest or weed control at 250 g/ha in the test on Lolium perenne (LOLPE) (setting [3]) was determined as 80%; with Lolium perenne (LOLPE) (setting [4]) it was 90%; in test [1] (setting [5]), 80%; in test [1] (setting [6]), 90%; in the test on Avena fatua (AVEFA) (setting [7]), 70%; in the test on Avena fatua (AVEFA) (setting [8]), 30%. In addition, the pest or weed control at 250 g/ha in test [2] (setting [9]) and in test [2] (setting [10]) was 70% throughout.
Regarding `C#CC(C)(C)NC(=O)CC1CC(=O)C(c2c(C)cc(-c3ncc(Cl)cc3F)cc2C)C1=O` (centres unmarked) [Compound B126], the pest or weed control at 250 g/ha stood at 100% in the test on Lolium perenne (LOLPE) (setting [3]); 100% in the test with Lolium perenne (LOLPE) (setting [4]); 100% in test [1] (setting [5]); 100% in test [1] (setting [6]); 100% in the test on Avena fatua (AVEFA) (setting [7]); 90% with Avena fatua (AVEFA) (setting [8]). For the same compound, the pest or weed control at 250 g/ha in test [2] (setting [9]) and in test [2] (setting [10]) was 100% throughout.
As for `Cc1cc(-c2ccc(F)cc2)cc(C)c1C1C(=O)CC(CC(=O)NC(C)(C)C)C1=O` (centres unmarked) [Compound A36], the pest or weed control at 250 g/ha is 90% in the test on Lolium perenne (LOLPE) (setting [11]); 100% in the test on Lolium perenne (LOLPE) (setting [15]); 100% in test [1] (setting [12]); 100% in test [1] (setting [16]); 100% in the test with Avena fatua (AVEFA) (setting [13]); 100% in the test with Avena fatua (AVEFA) (setting [17]). The figures for the pest or weed control at 250 g/ha in test [2] (setting [14]) and in test [2] (setting [18]) were 90% and 100%, respectively.
In the case of `C/C=C/c1cc(C)c(C2C(=O)CC(CC(=O)NCc3ccc(C#N)cc3)C2=O)c(C)c1` (centres unmarked) [Compound B244], the pest or weed control at 250 g/ha with Lolium perenne (LOLPE) (post-emergence, 360 h, POST-emergence, rate 250 g/ha, visual score 15 DAA (100%=total damage, 0%=no damage), read-out: Post-emergence herbicidal activity (percentage phytotoxicity) LOLPE POST) stood at 60%; with Lolium perenne (LOLPE) (pre-emergence, 480 h, PRE-emergence, rate 250 g/ha, visual score 20 DAA (100%=total damage, 0%=no damage), read-out: Pre-emergence herbicidal activity (percentage phytotoxicity) LOLPE PRE), 0%; in test [1] (post-emergence, 360 h, POST-emergence, rate 250 g/ha, visual score 15 DAA (100%=total damage, 0%=no damage), read-out: Post-emergence herbicidal activity (percentage phytotoxicity) ECHCG POST), 90%; in test [1] (pre-emergence, 480 h, PRE-emergence, rate 250 g/ha, visual score 20 DAA (100%=total damage, 0%=no damage), read-out: Pre-emergence herbicidal activity (percentage phytotoxicity) ECHCG PRE) it was 0%; in the test on Avena fatua (AVEFA) (post-emergence, 360 h, POST-emergence, rate 250 g/ha, visual score 15 DAA (100%=total damage, 0%=no damage), read-out: Post-emergence herbicidal activity (percentage phytotoxicity) AVEFA POST), 80%; in the test with Avena fatua (AVEFA) (pre-emergence, 480 h, PRE-emergence, rate 250 g/ha, visual score 20 DAA (100%=total damage, 0%=no damage), read-out: Pre-emergence herbicidal activity (percentage phytotoxicity) AVEFA PRE), 0%. Besides, the pest or weed control at 250 g/ha in test [2] (post-emergence, 360 h, POST-emergence, rate 250 g/ha, visual score 15 DAA (100%=total damage, 0%=no damage), read-out: Post-emergence herbicidal activity (percentage phytotoxicity) ALOMY POST) came to 0%; in test [2] (pre-emergence, 480 h, PRE-emergence, rate 250 g/ha, visual score 20 DAA (100%=total damage, 0%=no damage), read-out: Pre-emergence herbicidal activity (percentage phytotoxicity) ALOMY PRE), 0%.
